Results from publication PMC5148754, “Response surface methodology-based optimization of production media and purification of α-galactosidase in solid-state fermentation by Fusarium moniliforme NCIM 1099” (3 Biotech, 2016).

Experiments:
α-galactosidase [1] = test system: T1, α-galactosidase; experiment: initial rate of hydrolysis, Lineweaver-Burk; assay type: biochemical, Fusarium verticillioides; settings: citrate phosphate buffer pH 5.0, 50 °C (standard assay); read-out: apparent Km
T1 construct: gene EC 3.2.1.22; single band 57 kDa on SDS-PAGE; optimum pH 4.0

α-galactosidase [2] = test system: T1, α-galactosidase; experiment: initial rate of hydrolysis, p-nitrophenol release at […] nm, Lineweaver-Burk; assay type: biochemical, Fusarium verticillioides; settings: citrate phosphate buffer pH 5.0, 50 °C (standard assay); read-out: apparent Km

| Structure (SMILES) | Km (α-galactosidase [1]) [µM] | Km (α-galactosidase [2]) [µM] |
| --- | --- | --- |
| OC[C@H]1O[C@H](OC[C@H]2O[C@H](O[C@]3(CO)O[C@H](CO)[C@@H](O)[C@@H]3O)[C@H](O)[C@@H](O)[C@@H]2O)[C@H](O)[C@@H](O)[C@H]1O [raffinose] | 3660 | – |
| OC[C@H]1O[C@H](OC[C@H]2OC(O)[C@H](O)[C@@H](O)[C@@H]2O)[C@H](O)[C@@H](O)[C@H]1O (stereo partly drawn) [melibiose] | 1360 | – |
| O=[N+]([O-])c1ccc(O[C@H]2O[C@H](CO)[C@H](O)[C@H](O)[C@H]2O)cc1 [p-nitrophenyl-α-D-galactopyranoside] | – | 200 |
